Measurements as given in patent US10752587B2, “Homobispiperidinyl derivatives as liver X receptor beta agonists, compositions and their use” (Merck Sharp & Dohme Corp., priority 2015, dated 2020).

Assays:
[1] = molecular target: T1, glutathione-S-transferase (GST) tagged LXRbeta LBD (ligand binding domain) (Homo sapiens, UniProt P55055); test: LanthaScreen TR-FRET Liver X Receptor Coactivator Assay, co-activator recruitment to LXRbeta LBD; assay type: biochemical; conditions: for Emax: efficacy at max dose, in relation to reference dual agonist T0901317, read-out: LXR beta Activity @ max dose (%); for EC50: potency (Inflection Point, IP), co-activator recruitment to LXRbeta LBD, in relation to T0901317, read-out: LXR beta IP
T1 construct: purchased Invitrogen pv4658.pps
T1 sequence (P55055 222-460 limits assumed): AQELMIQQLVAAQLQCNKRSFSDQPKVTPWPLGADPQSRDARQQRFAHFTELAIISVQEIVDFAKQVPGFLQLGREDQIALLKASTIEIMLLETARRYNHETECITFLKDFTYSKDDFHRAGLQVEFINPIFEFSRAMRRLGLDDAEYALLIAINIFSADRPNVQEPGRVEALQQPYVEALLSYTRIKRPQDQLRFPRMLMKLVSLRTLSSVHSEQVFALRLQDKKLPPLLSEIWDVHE
Procedure, shortened: (§1)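 LXRα- or LXRβ-LBD protein was added to test compounds, then fluorescein-labelled coactivator peptide plus Tb-anti-GST antibody; after room-temperature incubation, TR-FRET was read. Inflection point (IP) and Emax were expressed relative to the dual agonist reference T0901317.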

[2] = molecular target: T2, glutathione-S-transferase (GST) tagged LXRalpha LBD (ligand binding domain) (Homo sapiens, UniProt Q13133); test: LanthaScreen TR-FRET Liver X Receptor Coactivator Assay, co-activator recruitment to LXRalpha LBD; assay type: biochemical; conditions: for Emax: read-out: LXR alpha Activity @ max dose (%); for LXR alpha IP (nM) / EC50: potency (Inflection Point, IP), co-activator recruitment to LXRalpha LBD, in relation to T0901317; for EC50: read-out: LXR alpha IP
T2 construct: purchased Invitrogen pv4655
T2 sequence (Q13133 209-447 limits assumed): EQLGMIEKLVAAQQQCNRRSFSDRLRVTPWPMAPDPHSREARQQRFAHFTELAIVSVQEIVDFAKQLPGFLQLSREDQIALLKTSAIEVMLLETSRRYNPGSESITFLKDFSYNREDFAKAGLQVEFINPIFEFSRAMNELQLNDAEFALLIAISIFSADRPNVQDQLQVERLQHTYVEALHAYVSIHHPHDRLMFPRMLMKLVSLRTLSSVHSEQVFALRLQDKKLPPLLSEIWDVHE
Procedure, shortened: as §1

[3] = efficacy at max dose, in relation to reference dual agonist T0901317

| Compound | Emax [1] | EC50 [1] | Emax [2, 3] | LXR alpha IP (nM) [2] | EC50 [2] | LXR alpha Activity @ max dose (%) [2, 3] |
| --- | --- | --- | --- | --- | --- | --- |
| CC(C)C(O)(C(=O)N1CCC(CC2CCN(c3ccc(C(=O)N(C)C)c(Cl)c3)CC2)CC1)C(F)(F)F (stereo not shown) [Example 2-31, 2-chloro-4-[4-({1-[2-hydroxy-3-methyl-2-(trifluoro-methyl)butanoyl]piperidin-4-yl}methyl)piperidin-1-yl]-N,N-dimethyl-benzamide] | 74% | 784 nM | 24% |  | 4450 nM |  |
| CN(C)C(=O)c1ccc(N2CCC(CC3CCN(C(=O)[C@](O)(c4cccc(OC(F)(F)F)c4)C(F)(F)F)CC3)CC2)cc1Cl [Example 2-91, 2-chloro-N,N-dimethyl-4-{4-[(1-{(2R)-3,3,3-trifluoro-2-hydroxy-2-[3-(trifluoro-methoxy)phenyl]propanoyl}piperidin-4-yl)methyl]piperidin-1-yl}benzamide] | 58% | 23 nM | 20% |  | 199 nM |  |
| CN(C)C(=O)c1ccc(N2CCC(CC3CCN(C(=O)[C@](O)(c4ccccc4)C(F)(F)F)C3)CC2)cc1Cl (stereo partly drawn) [Example 2-71, 2-chloro-N,N-dimethyl-4-[4-({1-[(2R)-3,3,3-trifluoro-2-hydroxy-2-phenyl-propanoyl]pyrrolidin-3-yl}methyl)piperidin-1-yl]benzamide] | 64% | 84 nM | 9% | NO IP |  |  |
| CS(=O)(=O)c1cccc(N2CCC(CC3CCN(C(=O)[C@](O)(c4ccccc4)C(F)(F)F)CC3)CC2)c1 [Example 2-74, (2R)-1,1,1-trifluoro-3-[4-({1-[3-(methylsulfonyl)phenyl]piperidin-4-yl}methyl)piperidin-1-yl]-3-oxo-2-phenylpropan-2-ol] | 87% | 39 nM | 38% |  | 444 nM |  |
| Cc1cccc([C@@](O)(C(=O)N2CCC(CC3CCN(c4ccc(C(=O)N(C)C)c(Cl)c4)CC3)CC2)C(F)(F)F)c1 [Example 2-112, 2-chloro-N,N-dimethyl-4-[4-({1-[(2R)-3,3,3-trifluoro-2-hydroxy-2-(3-methylphenyl)propanoyl]piperidin-4-yl}methyl)piperidin-1-yl]benzamide] | 44% | 8 nM | 10% | NO IP |  |  |
| CC(C)N(C)C(=O)c1ccc(N2CCC(CC3CCN(C(=O)[C@](O)(c4ccccc4)C(F)(F)F)CC3)CC2)cc1Cl [Example 4-2, 2-chloro-N-methyl-N-(1-methylethyl)-4-[4-({1-[(2R)-3,3,3-trifluoro-2-hydroxy-2-phenyl-propanoyl]piperidin-4-yl}methyl)piperidin-1-yl]benzamide] | 73% | 29 nM | 30% |  | 270 nM |  |
| Cc1cc(N2CCC(CC3(C)CCN(C(=O)[C@](O)(c4cccc(OC(C)C)c4)C(F)(F)F)CC3)CC2)ccc1C(=O)N(C)C [Example 2-77, N,N,2-trimethyl-4-{4-[(4-methyl-1-{(2R)-3,3,3-trifluoro-2-hydroxy-2-[3-(1-methylethoxy)phenyl]propanoyl}piperidin-4-yl)methyl]piperidin-1-yl}benzamide] | 44% | 45 nM | 2% | NO IP |  |  |
| CCOc1cccc([C@@](O)(C(=O)N2CCC(C)(CC3CCN(c4ccc(C(=O)N(C)C)c(C)c4)CC3)CC2)C(F)(F)F)c1 [Example 2-79, 4-[4-({1-[(2R)-2-(3-ethoxy-phenyl)-3,3,3-trifluoro-2-hydroxy-propanoyl]-4-methylpiperidin-4-yl}methyl)piperidin-1-yl]-N,N,2-trimethyl-benzamide] | 30% | 40 nM | 0% | NO IP |  |  |
| CC[C@](O)(C(=O)N1CCC(CC2CCN(c3ccc(C(=O)N(C)C)c(Cl)c3)CC2)CC1)c1ccccc1 [Example 2-110, 2-chloro-4-[4-({1-[(2R)-2-hydroxy-2-phenylbutanoyl]piperidin-4-yl}methyl)piperidin-1-yl]-N,N-dimethyl-benzamide] | 50% | 54 nM | 17% | NO IP |  |  |
| Cc1cccc([C@@](O)(C(=O)N2CCC(CC3CCN(c4ccc(C(=O)N(C)C)c(C)c4)CC3)CC2)C(F)(F)F)c1 [Example 2-157, N,N,2-trimethyl-4-[4-({1-[(2R)-3,3,3-trifluoro-2-hydroxy-2-(3-methylphenyl)propanoyl]piperidin-4-yl}methyl)piperidin-1-yl]benzamide] | 43% | 16 nM | 9% | NO IP |  |  |

Other lines, results leading:

| Emax [1] | EC50 [1] | Emax [2, 3] | LXR alpha IP (nM) [2] | EC50 [2] | LXR alpha Activity @ max dose (%) [2, 3] | Compound |
| --- | --- | --- | --- | --- | --- | --- |
| 67% | 136 nM | 1% | NO IP |  |  | CNC(=O)c1ccc(N2CCC(CC3CN(C(=O)[C@](O)(c4cccc(OC)c4)C(F)(F)F)C3)CC2)cc1Cl [Example 7-38, 2-chloro-N-methyl-4-[4-({1-[(2R)-3,3,3-trifluoro-2-hydroxy-2-(3-methoxyphenyl)propanoyl]azetidin-3-yl}methyl)piperidin-1-yl]benzamide] |
| 69% | 21 nM | 11% | NO IP |  |  | CNC(=O)c1ccc(N2CCC(CC3CCN(C(=O)[C@](O)(c4cccc(OC(C)C)c4)C(F)(F)F)CC3)CC2)cc1Cl [Example 7-121, 2-chloro-N-methyl-4-{4-[(1-{(2R)-3,3,3-trifluoro-2-hydroxy-2-[3-(1-methylethoxy)phenyl]propanoyl}piperidin-4-yl)methyl]piperidin-1-yl}benzamide] |
| 104% | 9 nM | 54% |  | 94 nM |  | CNC(=O)c1ccc(N2CCC(CC3CCN(C(=O)C(O)(c4cc(F)cc(F)c4)C(F)(F)F)CC3)CC2)cc1Cl (stereo not shown) [Example 7-122, 2-chloro-4-[4-({1-[2-(3,5-difluorophenyl)-3,3,3-trifluoro-2-hydroxypropanoyl]piperidin-4-yl}methyl)piperidin-1-yl]-N-methylbenzamide] |
| 52% | 4 nM | 15% | NO IP |  |  | Cc1cccc([C@@](O)(C(=O)N2CCC(CC3CCN(c4ccc(C(=O)N(C)C)c(Cl)n4)CC3)CC2)C(F)(F)F)c1 [Example 7-88, 2-chloro-N,N-dimethyl-6-[4-({1-[(2R)-3,3,3-trifluoro-2-hydroxy-2-(3-methylphenyl)propanoyl]piperidin-4-yl}methyl)piperidin-1-yl]pyridine-3-carboxamide] |
| 125% | 34 nM | 31% |  | 1610 nM |  | CN(C)C(=O)c1ccc(N2CCC(CC3CCN(C(=O)[C@@](O)(c4cc(F)cc(Cl)c4)C(F)(F)F)CC3)CC2)nc1Cl [Example 7-113, 2-chloro-6-[4-({1-[(2S)-2-(3-chloro-5-fluorophenyl)-3,3,3-trifluoro-2-hydroxypropanoyl]piperidin-4-yl}methyl)piperidin-1-yl]-N,N-dimethylpyridine-3-carboxamide] |
| 95% | 48 nM | 29% |  | 658 nM |  | CN(C)C(=O)c1ccc(N2CCC(CC3CCN(C(=O)C4(c5ccccc5F)CCCC4)CC3)CC2)nc1Cl [Example 7-65, 2-chloro-6-{4-[(1-{[1-(2-fluorophenyl)cyclopentyl]carbonyl}piperidin-4-yl)methyl]piperidin-1-yl}-N,N-dimethylpyridine-3-carboxamide] |
| 104% | 327 nM | 58% |  | 1310 nM |  | CNC(=O)c1ccc(N2CCC(CC3CCN(C(=O)C(O)(C(C)C)C(F)(F)F)CC3)CC2)nc1Cl (stereo not shown) [Example 7-143, 2-chloro-6-[4-({1-[2-hydroxy-3-methyl-2-(trifluoromethyl)butanoyl]piperidin-4-yl}methyl)piperidin-1-yl]-N-methylpyridine-3-carboxamide] |
| 55% | 6 nM |  | NO IP |  | 1% | CN(C)C(=O)c1ccc(N2CCC(CC3CCN(C(=O)[C@](O)(c4cc(Cl)cc(Cl)c4)C(F)(F)F)CC3)CC2)nc1Cl [Example 7-93, 2-chloro-6-[4-({1-[(2R)-2-(3,5-dichlorophenyl)-3,3,3-trifluoro-2-hydroxypropanoyl]piperidin-4-yl}methyl)piperidin-1-yl]-N,N-dimethylpyridine-3-carboxamide] |
| 78% | 96 nM | 25% |  | 784 nM |  | CNC(=O)c1ccc(N2CCC(CC3CCN(C(=O)C(O)(c4cccc(C(F)(F)F)c4)C(F)(F)F)CC3)CC2)cc1Cl (stereo not shown) [Example 7-35, 2-chloro-N-methyl-4-{4-[(1-{3,3,3-trifluoro-2-hydroxy-2-[3-(trifluoromethyl)phenyl]propanoyl}piperidin-4-yl)methyl]piperidin-1-yl}benzamide] |
